Measurements reported in patent US10292395B2, “3H-pyrrolopyridine compound, N-oxide thereof or salt thereof, agricultural and horticultural insecticide comprising the compound and method for using the same” (Nihon Nohyaku Co., Ltd., priority 2015, dated 2019).

What was measured:
[1] = tested on: Plutella xylostella; assay: Insecticidal test on Plutella xylostella (dip of Chinese cabbage seedlings with laid eggs); type: in vivo; conditions: 144 h, seedlings with laid eggs dipped about 30 seconds, 25° C., 6 days after dip treatment, read-out: insecticidal effect (corrected mortality rate), activity level
Text: Insecticidal Test on Plutella xylostella
Adults of Plutella xylostella were released onto Chinese cabbage seedlings and allowed to lay eggs thereon. At 2 days after the release of the adults, the Chinese cabbage seedlings with laid eggs were dipped for about 30 seconds in agrochemical dispersions diluted to 500 ppm, each of which contained a different condensed heterocyclic compound represented by the general formula (1) of the present invention as an active ingredient. After air-dried, the seedlings were kept in a thermostatic chamber at 25° C. At 6 days after the dip treatment, the number of hatched larvae per plot was counted, the mortality rate was calculated according to the formula shown below, and the insecticidal effect was evaluated according to the criteria of Test Example 1. This test was conducted in triplicate using 10 adults of Plutella xylostella per plot. Corrected mortality rate (%)=100×(Number of hatched larvae in a non-treatment plot−Number of hatched larvae in a treatment plot)/Number of hatched larvae in a non-treatment plot [Math. 3]

[2] = tested on: Laodelphax striatella; assay: Insecticidal test on Laodelphax striatella (rice seedling dip); type: in vivo; conditions: Laodelphax striatellus, 192 h, rice seedlings dipped 30 seconds, 3rd-instar larvae, 8 days after inoculation, read-out: insecticidal effect (corrected mortality rate), activity level
Text: Insecticidal Test on Laodelphax striatella
The condensed heterocyclic compounds represented by the general formula (1) of the present invention or salts thereof were separately dispersed in water and diluted to 500 ppm, and rice plant seedlings (variety: Nihonbare) were dipped in the agrochemical dispersions for 30 seconds. After air-dried, each seedling was put into a separate glass test tube and inoculated with ten 3rd-instar larvae of Laodelphax striatella, and then the glass test tubes were capped with cotton plugs. At 8 days after the inoculation, the numbers of surviving larvae and dead larvae were counted, the corrected mortality rate was calculated according to the formula shown below, and the insecticidal effect was evaluated according to the criteria of Test Example 1. Corrected mortality rate (%)=100×(Survival rate in a non-treatment plot−Survival rate in a treatment plot)/Survival rate in a non-treatment plot [Math. 2]

Question: How did the mortality at 500 ppm [1] turn out when `CCS(=O)(=O)c1cc(C(F)(F)F)ccc1C1=Nc2cc(C(F)(F)F)cnc2C1(F)F` [Compound 1-1] was run?
Answer: 100%

Question: And the mortality at 500 ppm [2]?
Answer: 100%

Question: Which mortality at 500 ppm [1] does the source give for `CCS(=O)(=O)c1cc(C(F)(F)F)cnc1C1=Nc2cc(C(F)(F)F)cnc2C1(F)F` [Compound 1-10, 2-(3-Ethylsulfonyl-5-trifluoromethylpyridin-2-yl)-3,3-difluoro-6-trifluoromethyl-3H-pyrrolo[3,2-b]pyridine] here?
Answer: 100%

Question: And the mortality at 500 ppm [2]?
Answer: 100%

Question: For `CCS(=O)(=O)c1cc(-c2cccc(C(F)(F)F)c2)cnc1C1=Nc2cc(C(F)(F)F)cnc2C1(F)F` [Compound 1-20, 2-(3-Ethylsulfonyl-5-(3-trifluoromethylphenyl)pyridin-2-yl)-3,3-difluoro-6-trifluoromethyl-3H-pyrrolo[3,2-b]pyridine], which mortality at 500 ppm [1] is on record?
Answer: 100%

Question: And the mortality at 500 ppm [2]?
Answer: 100%

Question: Which results are given for `CCS(=O)(=O)c1cc(-c2ccc(F)cc2)cnc1C1=Nc2cc(C(F)(F)F)cnc2C1(F)F` [Compound 1-19, 2-(3-Ethylsulfonyl-5-(4-fluorophenyl)pyridin-2-yl)-3,3-difluoro-6-trifluoromethyl-3H-pyrrolo[3,2-b]pyridine]?
Answer: mortality at 500 ppm [1]: 100%; mortality at 500 ppm [2]: 100%

Question: `CC[S+]([O-])c1cc(C(F)(F)F)cnc1C1=Nc2cc(C(F)(F)F)cnc2C1(F)F` (stereo not shown) [Compound 1-9, 2-(3-Ethylsulfinyl-5-trifluoromethylpyridin-2-yl)-3,3-difluoro-6-trifluoromethyl-3H-pyrrolo[3,2-b]pyridine] was tested. Which mortality at 500 ppm [1] did it give?
Answer: 100%

Question: And the mortality at 500 ppm [2]?
Answer: 100%
